From ChEMBL document CHEMBL1201862, “PubChem BioAssay data set” (2004)
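In this assay, cells in 96-well plates receive the compound at five concentrations for 48 hours. Endpoints are linearly interpolated between the surrounding concentrations. GI50 = concentration required for 50% inhibition of growth.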 Activity calls are given as the source filed them. Rule as the data show it: active = GI50 up to about 1.1 µM and inactive = higher. Where a SMILES comes first, the peptide text is derived from it. The star is where a group is joined. Fmoc = O=C(OCC1c2ccccc2-c2ccccc21)*; OtBu = CC(C)(C)O*

Columns and labels:
Test in all cases: NCI tumour cell line growth inhibition, 48 h
786-0 = tested on: 786-0
A549 = tested on: A549
ACHN = tested on: ACHN
BT-549 = tested on: BT-549
HL-60 = tested on: HL-60
HOP-62 = tested on: HOP-62
Hs-578T = tested on: Hs-578T
KM12 = tested on: KM12
MDA-N = tested on: MDA-N
MOLT-4 = tested on: MOLT-4
NCI-H226 = tested on: NCI-H226
NCI-H23 = tested on: NCI-H23
NCI-H460 = tested on: NCI-H460
NCI-H522 = tested on: NCI-H522
NCI/ADR-RES = tested on: NCI/ADR-RES
OVCAR-4 = tested on: OVCAR-4
PC-3 = tested on: PC-3
RPMI-8226 = tested on: RPMI-8226
SF-539 = tested on: SF-539
UO-31 = tested on: UO-31

Compound	GI50 (786-0)	GI50 (A549)	GI50 (ACHN)	GI50 (BT-549)	GI50 (HL-60)	GI50 (HOP-62)	GI50 (Hs-578T)	GI50 (KM12)	GI50 (MDA-N)	GI50 (MOLT-4)	GI50 (NCI-H226)	GI50 (NCI-H23)	GI50 (NCI-H460)	GI50 (NCI-H522)	GI50 (NCI/ADR-RES)	GI50 (OVCAR-4)	GI50 (PC-3)	GI50 (RPMI-8226)	GI50 (SF-539)	GI50 (UO-31)
Nc1nc(SCc2ccccc2)c2ncn(Cc3ccccc3)c2n1	> 100 µM (inactive)	> 96.2 µM (inactive)	> 100 µM (inactive)	> 100 µM (inactive)	4.56 µM (inactive)	> 100 µM (inactive)	> 100 µM (inactive)	> 86.9 µM (inactive)	> 100 µM (inactive)	> 100 µM (inactive)	> 100 µM (inactive)	> 67.8 µM (inactive)	> 79.4 µM (inactive)	> 60.4 µM (inactive)	> 100 µM (inactive)	> 100 µM (inactive)	> 100 µM (inactive)	> 75.9 µM (inactive)	> 100 µM (inactive)	> 100 µM (inactive)
Cc1cc(C(=O)CSC(=S)SC(C)(C)C)ccc1Cl	22.3 µM (inactive)	20.9 µM (inactive)	25 µM (inactive)	21.9 µM (inactive)	18.4 µM (inactive)	17.4 µM (inactive)	25.5 µM (inactive)	20 µM (inactive)	15.8 µM (inactive)	13.8 µM (inactive)	27 µM (inactive)	29.5 µM (inactive)	14.7 µM (inactive)	14.7 µM (inactive)	19.8 µM (inactive)	31 µM (inactive)	29.8 µM (inactive)	21.9 µM (inactive)	18.7 µM (inactive)	18.1 µM (inactive)
O=C1/C(=C/c2ccc([N+](=O)[O-])cc2)Oc2cc(O)ccc21	22.2 µM (inactive)	28.8 µM (inactive)	25.4 µM (inactive)	25.9 µM (inactive)	17.5 µM (inactive)	31.2 µM (inactive)	17.1 µM (inactive)	36.5 µM (inactive)	23.2 µM (inactive)	14.6 µM (inactive)	13.2 µM (inactive)	42.1 µM (inactive)	31.5 µM (inactive)	24.8 µM (inactive)	28.8 µM (inactive)	39.6 µM (inactive)	29.3 µM (inactive)	22.5 µM (inactive)	23.4 µM (inactive)	17.7 µM (inactive)
COc1cc(C2C3=C(COC3=O)Oc3cc4c(cc32)OCO4)cc(OC)c1O (stereo not given)	< 0.0152 µM (active)	< 0.0141 µM (active)	< 0.0119 µM (active)	39.8 µM (inactive)	< 0.01 µM (active)	< 0.0135 µM (active)	0.0119 µM (active)	< 0.01 µM (active)	< 0.01 µM (active)	0.0175 µM (active)	< 0.0118 µM (active)	0.465 µM (active)	< 0.0139 µM (active)	< 0.01 µM (active)	< 0.01 µM (active)	8.24 µM (inactive)	< 0.01 µM (active)	< 0.0232 µM (active)	< 0.01 µM (active)	0.0592 µM (active)
COc1ccc(N2N=NN(C(C)C)/C2=C(/Cl)c2nnnn2-c2ccc(OC)cc2)cc1	2.76 µM (inactive)	17.8 µM (inactive)	16.6 µM (inactive)	15.6 µM (inactive)	2.45 µM (inactive)	21 µM (inactive)	22.1 µM (inactive)	17.1 µM (inactive)	13.6 µM (inactive)	4.61 µM (inactive)	20.2 µM (inactive)	16.8 µM (inactive)	18.7 µM (inactive)	2.76 µM (inactive)	27.7 µM (inactive)	5.01 µM (inactive)	14.6 µM (inactive)	8.99 µM (inactive)	18.8 µM (inactive)	5.97 µM (inactive)
CCN1CCCCC(=N\O)/C(=N/O)CCCC1	> 100 µM (inactive)	> 100 µM (inactive)	> 100 µM (inactive)	> 100 µM (inactive)	> 100 µM (inactive)	> 100 µM (inactive)	> 100 µM (inactive)	> 100 µM (inactive)	> 100 µM (inactive)	> 100 µM (inactive)	> 100 µM (inactive)	> 100 µM (inactive)	> 100 µM (inactive)	> 100 µM (inactive)	> 100 µM (inactive)	> 100 µM (inactive)	> 100 µM (inactive)	> 100 µM (inactive)	> 100 µM (inactive)	> 100 µM (inactive)
CCOC(=O)c1cccc(NC(=O)CBr)c1	0.22 µM (active)	2.09 µM (inactive)	1.56 µM (inactive)	1.91 µM (inactive)	1.74 µM (inactive)	1.73 µM (inactive)	2.72 µM (inactive)	1.79 µM (inactive)	1.4 µM (inactive)	0.223 µM (active)	0.76 µM (active)	0.942 µM (active)	0.927 µM (active)	0.0164 µM (active)	2.04 µM (inactive)	1.53 µM (inactive)	1.55 µM (inactive)	1.07 µM (active)	0.984 µM (active)	0.776 µM (active)
COc1cc(/C=C(\C)[N+](=O)[O-])cc(OC)c1	4.59 µM (inactive)	28.3 µM (inactive)	16.4 µM (inactive)	19.2 µM (inactive)	2.04 µM (inactive)	19.2 µM (inactive)	26.9 µM (inactive)	19.3 µM (inactive)	13 µM (inactive)	2.57 µM (inactive)	> 52.5 µM (inactive)	19.1 µM (inactive)	20.2 µM (inactive)	1.87 µM (inactive)	20.2 µM (inactive)	18.1 µM (inactive)	20.1 µM (inactive)	3.12 µM (inactive)	9.18 µM (inactive)	15.6 µM (inactive)
CC(=O)/C(=C/NC(=S)c1cccnc1)C(=O)Nc1ccccc1C	> 100 µM (inactive)	> 100 µM (inactive)	> 100 µM (inactive)	> 100 µM (inactive)	2.37 µM (inactive)	> 100 µM (inactive)	> 100 µM (inactive)	> 100 µM (inactive)	> 100 µM (inactive)	> 100 µM (inactive)	> 100 µM (inactive)	> 100 µM (inactive)	> 100 µM (inactive)	96.6 µM (inactive)	97.5 µM (inactive)	> 100 µM (inactive)	68.9 µM (inactive)	> 100 µM (inactive)	30.9 µM (inactive)	> 100 µM (inactive)
O=C(O)c1ccc(Nc2nc3ccccc3nc2-c2cccs2)cc1	71.9 µM (inactive)	44.2 µM (inactive)	98.9 µM (inactive)	32.1 µM (inactive)	> 100 µM (inactive)	> 100 µM (inactive)	50.7 µM (inactive)	64.1 µM (inactive)	> 100 µM (inactive)	> 100 µM (inactive)	> 100 µM (inactive)	> 100 µM (inactive)	71 µM (inactive)	91.4 µM (inactive)	39.1 µM (inactive)	41.8 µM (inactive)	> 100 µM (inactive)	68.1 µM (inactive)	> 100 µM (inactive)	63.5 µM (inactive)
CC(C)=CCNc1ncnc2c1ncn2CCC(=O)O	> 100 µM (inactive)	> 100 µM (inactive)	> 100 µM (inactive)	> 100 µM (inactive)	> 100 µM (inactive)	> 100 µM (inactive)	> 100 µM (inactive)	> 100 µM (inactive)	> 100 µM (inactive)	> 100 µM (inactive)	> 100 µM (inactive)	> 100 µM (inactive)	> 100 µM (inactive)	> 100 µM (inactive)	> 100 µM (inactive)	> 100 µM (inactive)	> 100 µM (inactive)	> 100 µM (inactive)	> 100 µM (inactive)	> 100 µM (inactive)
CCCCOC(=O)C(O)Cc1ccoc1 (stereo not given)	> 100 µM (inactive)	> 100 µM (inactive)	> 100 µM (inactive)	> 100 µM (inactive)	> 100 µM (inactive)	> 100 µM (inactive)	> 100 µM (inactive)	> 100 µM (inactive)	> 100 µM (inactive)	> 100 µM (inactive)	> 100 µM (inactive)	> 100 µM (inactive)	> 100 µM (inactive)	> 100 µM (inactive)	> 100 µM (inactive)	> 100 µM (inactive)	> 100 µM (inactive)	> 100 µM (inactive)	> 100 µM (inactive)	> 100 µM (inactive)
Oc1cc(-c2cccc(Cl)c2)nc2ncccc12	0.249 µM (active)	0.126 µM (active)	3.27 µM (inactive)	7.33 µM (inactive)	0.0142 µM (active)	0.253 µM (active)	0.084 µM (active)	0.0515 µM (active)	0.0132 µM (active)	0.0545 µM (active)	0.378 µM (active)	1.54 µM (inactive)	0.0605 µM (active)	0.0474 µM (active)	0.221 µM (active)	> 66.7 µM (inactive)	0.0248 µM (active)	0.05 µM (active)	0.0532 µM (active)	2.52 µM (inactive)
CC(C)C(NC(=O)OCC1c2ccccc2-c2ccccc21)C(=O)NC(CCC(=O)OC(C)(C)C)C(=O)OC(C)(C)C (stereo not given) (Fmoc-Val-Glu(OtBu)-OtBu; configuration not given here)	> 100 µM (inactive)	60 µM (inactive)	> 100 µM (inactive)	> 100 µM (inactive)	4.14 µM (inactive)	> 93.1 µM (inactive)	> 100 µM (inactive)	> 29.2 µM (inactive)	> 100 µM (inactive)	4.21 µM (inactive)	> 100 µM (inactive)	14.9 µM (inactive)	21.2 µM (inactive)	> 45.1 µM (inactive)	27 µM (inactive)	12.8 µM (inactive)	3.99 µM (inactive)	2.92 µM (inactive)	24.1 µM (inactive)	> 56.2 µM (inactive)
